Experimental data: patent publication US20220267260A1, “COMPOUNDS CONTAINING A SULFONIC GROUP AS KAT INHIBITORS” (Epizyme, Inc., priority 2016, published 2022)

Columns and labels:
KAT6A = molecular target: T1, KAT6A (Homo sapiens, UniProt Q92794); test: KAT6A enzyme inhibition assay (SAMDI mass spectrometry); format: biochemical; conditions: His-TEV-KAT6A 501-784 enzyme construct
T1 construct: His-TEV tag (N, cleaved yes); made in house

KAT5 = molecular target: T2, KAT5 (Homo sapiens, UniProt Q92993); test: KAT5 enzyme inhibition assay (SAMDI mass spectrometry); format: biochemical; conditions: His-TEV-FL KAT5-Flag enzyme construct
T2 construct: His-TEV tag (N, cleaved yes); made in house
T2 sequence (Q92993 with tags, fused parts or gaps): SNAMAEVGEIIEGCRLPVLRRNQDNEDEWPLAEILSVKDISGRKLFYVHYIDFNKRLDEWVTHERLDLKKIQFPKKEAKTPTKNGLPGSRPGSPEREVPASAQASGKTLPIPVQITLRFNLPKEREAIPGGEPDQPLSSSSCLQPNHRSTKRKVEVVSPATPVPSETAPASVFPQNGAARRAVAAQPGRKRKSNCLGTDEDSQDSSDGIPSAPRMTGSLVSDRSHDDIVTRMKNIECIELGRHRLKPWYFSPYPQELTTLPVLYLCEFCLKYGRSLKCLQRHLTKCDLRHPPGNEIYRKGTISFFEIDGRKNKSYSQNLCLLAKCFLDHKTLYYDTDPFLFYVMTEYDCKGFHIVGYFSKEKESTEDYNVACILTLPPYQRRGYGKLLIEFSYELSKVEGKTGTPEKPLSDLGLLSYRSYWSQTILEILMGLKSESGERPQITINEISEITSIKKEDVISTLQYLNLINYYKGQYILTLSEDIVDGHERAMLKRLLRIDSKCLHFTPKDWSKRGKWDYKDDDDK

T1 sequence (Q92794 with tags, fused parts or gaps): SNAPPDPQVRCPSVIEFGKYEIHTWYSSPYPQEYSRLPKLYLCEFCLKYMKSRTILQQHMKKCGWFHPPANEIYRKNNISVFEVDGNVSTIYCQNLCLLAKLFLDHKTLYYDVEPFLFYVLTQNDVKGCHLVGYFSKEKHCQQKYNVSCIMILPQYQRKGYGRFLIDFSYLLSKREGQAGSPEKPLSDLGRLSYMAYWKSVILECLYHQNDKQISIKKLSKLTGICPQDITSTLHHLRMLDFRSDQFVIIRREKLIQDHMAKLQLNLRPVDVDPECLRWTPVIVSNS

| SMILES | IC50 (KAT6A) [µM] | IC50 (KAT5) [µM] |
| --- | --- | --- |
| Cc1cc(-c2ccccc2)cc(C(=O)NNS(=O)(=O)C2CCCN(C(C)C)C2)c1F (stereo not drawn) [Compound I-100] | 50 to 100 | > 100 |
| O=S(=O)(Nc1ncc(-c2cc(-c3ccccc3)ccc2F)[nH]1)c1ccccc1 [Compound I-67] | > 100 | > 100 |
| Cc1ccccc1C(=O)NNS(=O)(=O)c1ccccc1 [Compound I-148] | > 100 | > 100 |
| Cc1cc(C(=O)NNS(=O)(=O)c2ccccc2)c(F)c(-c2ccccc2)c1 [Compound I-142] | ≤ 10 | 10 to 50 |
| O=S(=O)(NNCc1ccccc1F)c1ccccc1 [Compound I-245] | > 100 | > 100 |
| Cc1cc(-c2cccc(F)c2)cc(C(=O)NNS(=O)(=O)CC2CCCN(C(=O)CCN(C)C)C2)c1F (stereo not drawn) [Compound I-329] | 10 to 50 | 10 to 50 |
| Cc1cc(-c2ccccc2)cc(C(=O)NNS(=O)(=O)CC2CCCCC2)c1F [Compound I-227] | ≤ 10 | ≤ 10 |
| Cc1cccc(-c2ncc(C(=O)Nc3ccccc3)[nH]2)c1F [Compound I-450] | ≤ 10 | ≤ 10 |
| O=C(NNS(=O)(=O)c1ccccc1)c1c(F)ccc(-c2ccccc2)c1F [Compound I-233] | ≤ 10 | 10 to 50 |
| CC(=O)N1CCC(CS(=O)(=O)NNC(=O)c2cc(-c3ccccc3)cc(C)c2F)C1 (stereo not drawn) [Compound I-335] | ≤ 10 | ≤ 10 |
| CCN1CCCC(S(=O)(=O)NNC(=O)c2cc(-c3ccccc3)cc(C)c2F)C1 (stereo not drawn) [Compound I-99] | 10 to 50 | > 100 |
| Cc1nn(C)c(C(=O)NNS(=O)(=O)C2CCCCC2)c1F [Compound I-469] | > 100 | > 100 |
| CCc1cc(-c2ccccc2)cc(C(=O)NNS(=O)(=O)c2ccccc2)c1F [Compound I-216] | ≤ 10 | ≤ 10 |
| Cc1cc(-c2ccccc2)cc(C(=O)NNS(=O)(=O)c2ccc(Cl)cc2)c1F [Compound I-217] | ≤ 10 | ≤ 10 |
| COc1c(C)cc(-c2ccccc2)cc1C(=O)NNS(=O)(=O)C1CCCCC1 [Compound I-311] | > 100 | > 100 |
| O=C(NNS(=O)(=O)C1CCCCC1)c1cc(-c2cccc(CO)c2)cc(Cl)c1F [Compound I-485] | 10 to 50 | ≤ 10 |
| Cc1c(-c2ccccc2)ccc(F)c1C(=O)NNS(=O)(=O)c1ccc(Cl)cc1 [Compound I-241] | 10 to 50 | 50 to 100 |
| O=C(NNS(=O)(=O)C1CCCCC1)c1cc(-c2cc(F)cc(F)c2)cc(Cl)c1F [Compound I-392] | 10 to 50 | ≤ 10 |
| Cc1cc(-c2ccccc2)cc(C(=O)NNS(=O)(=O)C2COC2)c1F [Compound I-55] | 10 to 50 | 10 to 50 |
| Cc1cc(-c2ccccc2)cc(C(=O)NNS(=O)(=O)C2CCN(C(=O)C(C)C)CC2)c1F [Compound I-108] | 10 to 50 | ≤ 10 |
| Cc1cc(-c2ccccc2)cc(C(=O)NCC(O)c2ccccc2)c1F (stereo not drawn) [Compound I-178] | > 100 | > 100 |
| COc1ccccc1-c1cc(C)c(F)c(C(=O)NNS(=O)(=O)CC2CCCCC2)c1 [Compound I-370] | > 100 | 10 to 50 |

| SMILES | IC50 (KAT6A) [µM] | IC50 (KAT5) [µM] |
| --- | --- | --- |
| CC(C)(C)OC(=O)N1CCCC(CS(=O)(=O)NNC(=O)c2cc(-c3cccc(F)c3)cc(Cl)c2F)C1 (stereo not drawn) [Compound I-396] | ≤ 10 | ≤ 10 |
| COCC(=O)N1CCCC(CS(=O)(=O)NNC(=O)c2cc(-c3ccccc3)cc(C)c2F)C1 (stereo not drawn) [Compound I-346] | ≤ 10 | ≤ 10 |
| Cc1cc(-c2ccccc2)cc(C(=O)NNS(=O)(=O)CC2CCN(CCO)CC2)c1F [Compound I-343] | 10 to 50 | 10 to 50 |
| O=C(NNS(=O)(=O)C1CCCCC1)c1cc(CO)cc(Cl)c1F [Compound I-456] | > 100 | > 100 |
| Cc1cc(-c2ccccc2)cc(C(=O)NNS(=O)(=O)C2CCCN(C)C2)c1F (stereo not drawn) [Compound I-98] | 10 to 50 | > 100 |
| O=C(NNS(=O)(=O)c1cc(-c2ccccc2)cc(Cl)c1F)C1CCCCC1 [Compound I-524] | 10 to 50 | 50 to 100 |
| Cc1cc(-c2ccccc2)cc(C(=O)NS(=O)(=O)N2CCCC2)c1F [Compound I-151] | > 100 | > 100 |
| COc1ccccc1CN1CC(S(=O)(=O)NNC(=O)c2cc(-c3ccccc3)cc(C)c2F)C1 [Compound I-22, N′-(4-fluoro-5-methyl-[1,1′-biphenyl]-3-carbonyl)-1-(2-methoxybenzyl)azetidine-3-sulfonohydrazide] | 10 to 50 | 10 to 50 |
| Cc1nn(-c2ccccc2)cc1C(=O)NNS(=O)(=O)c1ccccc1 [Compound I-124] | > 100 | > 100 |
| COc1ccccc1S(=O)(=O)NNC(=O)c1cc(-c2ccccc2)cc(C)c1F [Compound I-176] | ≤ 10 | ≤ 10 |
| O=C(NNS(=O)(=O)c1ccccc1)c1c[nH]c2ccccc12 [Compound I-158] | > 100 | > 100 |
| Cc1cc(-c2ccccc2)cc(C(=O)NNS(=O)(=O)C2CN(Cc3cccc(Cl)c3)C2)c1F [Compound I-28] | > 100 | > 100 |
| COc1ccccc1-c1cc(C)c(F)c(C(=O)NNS(=O)(=O)c2ccccc2)c1 [Compound I-304] | ≤ 10 | 50 to 100 |
| Cc1cc(-c2ccccc2)cc(C(=O)NNS(=O)(=O)c2ccc(=O)[nH]c2)c1F [Compound I-162] | ≤ 10 | > 100 |
| CCc1cc(C)c(F)c(C(=O)NNS(=O)(=O)C2CCCCC2)c1 [Compound I-300] | 50 to 100 | 10 to 50 |
| Cc1cc(-c2cccnc2)cc(C(=O)NNS(=O)(=O)c2ccccc2)c1F [Compound I-195] | ≤ 10 | 10 to 50 |
| O=C(NNS(=O)(=O)c1ccccc1)c1cc(Cl)ccc1F [Compound I-153] | ≤ 10 | 10 to 50 |
| O=S(=O)(NNc1n[nH]c2ccc(-c3ccccc3)cc12)c1ccccc1 [Compound I-46] | > 100 | > 100 |
| Cc1cc(C2CCCN(C)C2)cc(C(=O)NNS(=O)(=O)C2CCCCC2)c1F (stereo not drawn) [Compound I-287] | > 100 | > 100 |
| O=C(NNS(=O)(=O)c1ccccc1)N1CCCCC1 [Compound I-254] | > 100 | > 100 |
| CC(=O)N1CCCC(CS(=O)(=O)NNC(=O)c2cc(-c3cccc(C)c3)cc(Cl)c2F)C1 (stereo not drawn) [Compound I-515] | > 100 | ≤ 10 |
| CNC(=O)c1cccc(-c2cc(C)c(F)c(C(=O)NNS(=O)(=O)CC3CCCCC3)c2)c1 [Compound I-433] | 10 to 50 | ≤ 10 |

| SMILES | IC50 (KAT6A) [µM] | IC50 (KAT5) [µM] |
| --- | --- | --- |
| Cc1cc(-c2cccc(C(=O)N(C)C)c2)cc(C(=O)NNS(=O)(=O)CC2CCCCC2)c1F [Compound I-374] | 10 to 50 | 10 to 50 |
| O=C(NNS(=O)(=O)c1ccccc1)c1c(F)c(Cl)cc(-c2ccccc2)c1F [Compound I-136] | ≤ 10 | ≤ 10 |
| Cc1cc(-c2ccccc2)cc(C(=O)NNS(=O)(=O)C2CC2)c1F [Compound I-4] | 50 to 100 | 50 to 100 |
| Cc1cccc(-c2ccc(F)c(C(=O)NNS(=O)(=O)c3ccccc3)c2C)c1 [Compound I-273] | 50 to 100 | > 100 |
| CC(=O)N1CC(CS(=O)(=O)NNC(=O)c2cc(-c3ccccc3)cc(C)c2F)C1 [Compound I-303] | ≤ 10 | 10 to 50 |
| Cc1cc(-c2ccccc2)cc(C(=O)NNS(=O)(=O)c2cccc(C(=O)O)c2)c1F [Compound I-256] | ≤ 10 | 50 to 100 |
| O=C(NNS(=O)(=O)CC1CCCNC1)c1cc(-c2cccc(F)c2)cc(Cl)c1F (stereo not drawn) [Compound I-416] | 50 to 100 | 50 to 100 |
| O=C(NNS(=O)(=O)CC1CCCN(C(=O)C2CCOCC2)C1)c1cc(-c2ccccc2)cc(Cl)c1F (stereo not drawn) [Compound I-419] | ≤ 10 | ≤ 10 |
| Cc1cc(-c2cccc(C(=O)OCc3ccccc3)c2)cc(C(=O)NNS(=O)(=O)C2CCOCC2)c1F [Compound I-443] | ≤ 10 | ≤ 10 |
| Cc1c(-c2ccccc2)ccc(F)c1C(=O)NNS(=O)(=O)c1ccccc1 [Compound I-251] | ≤ 10 | 50 to 100 |
| O=C(NNS(=O)(=O)CC1CCOCC1)c1cc(-c2ccccc2)cc(Cl)c1F [Compound I-400] | ≤ 10 | ≤ 10 |
| CCc1cc(Cl)c(F)c(C(=O)NNS(=O)(=O)C2CCCCC2)c1 [Compound I-420] | > 100 | 10 to 50 |
| COc1cc(-c2ccccc2)cc(C(=O)NNS(=O)(=O)c2ccccc2)c1F [Compound I-129] | ≤ 10 | 10 to 50 |
| Cc1cc(-c2cccc(F)c2F)cc(C(=O)NNS(=O)(=O)CC2CCCCC2)c1F [Compound I-380] | 50 to 100 | > 100 |
| Cc1cc(-c2ccccc2)cc(C(=O)NNS(=O)(=O)CC2CCNC2)c1F (stereo not drawn) [Compound I-320] | 10 to 50 | 10 to 50 |
| O=C(NNS(=O)(=O)C1CCCCC1)c1c(Cl)ccc(-c2ccccc2)c1Cl [Compound I-275] | > 100 | > 100 |
| COc1cc(Cl)c(F)c(C(=O)NNS(=O)(=O)CC2CCOCC2)c1 [Compound I-431] | 50 to 100 | 10 to 50 |
| COc1cc(C)c(F)c(C(=O)NNS(=O)(=O)C2CCCCC2)c1 [Compound I-391] | > 100 | ≤ 10 |
| CNC(=O)c1cccc(-c2cc(C)c(F)c(C(=O)NNS(=O)(=O)c3ccccc3)c2)c1 [Compound I-415] | ≤ 10 | 10 to 50 |
| Cc1cc(Cl)cc(C(=O)NNS(=O)(=O)CC2CCCCC2)c1F [Compound I-276] | 10 to 50 | ≤ 10 |
| CNC(=O)c1cc(Cl)c(F)c(C(=O)NNS(=O)(=O)C2CCOCC2)c1 [Compound I-491] | > 100 | > 100 |
| O=C(NNS(=O)(=O)c1ccccc1)c1cccc(Cl)c1F [Compound I-160] | ≤ 10 | 10 to 50 |
